Where two headings read alike, the source gives them in different places.
Key:
[1] = biological target: T1, Y2 receptors (Homo sapiens, UniProt P49146); assay: Radioligand binding assay ([125I]PYY, KAN-Ts cell membranes); details: average of results, read-out: IC50
T1 construct: endogenous in cells; host or cells: KAN-Ts cells (membranes)
T1 sequence (P49146 1-381): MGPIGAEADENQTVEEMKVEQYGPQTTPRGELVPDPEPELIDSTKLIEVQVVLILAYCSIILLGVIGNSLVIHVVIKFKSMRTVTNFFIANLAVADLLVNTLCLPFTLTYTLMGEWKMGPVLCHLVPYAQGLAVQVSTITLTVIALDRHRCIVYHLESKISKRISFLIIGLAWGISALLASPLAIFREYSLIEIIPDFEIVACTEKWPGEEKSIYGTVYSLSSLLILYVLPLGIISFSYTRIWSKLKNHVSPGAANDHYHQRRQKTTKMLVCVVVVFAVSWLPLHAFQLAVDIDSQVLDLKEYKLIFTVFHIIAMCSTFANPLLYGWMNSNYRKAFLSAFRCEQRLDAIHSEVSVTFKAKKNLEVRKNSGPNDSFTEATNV
Method in brief: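 Membranes from KAN-Ts cells endogenously expressing Y2 incubated 1 h at rt with 80 pM [^125I]PYY ± test compound in HEPES buffer with NaCl, Ca^2+ and Mg^2+. Bound radioactivity collected by filtration; specific binding defined with […]. IC50 from sigmoidal fit, averaged over 3-8 duplicate experiments.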

[2] = biological target: T1, Y2 receptors; assay: [35S]GTPγS binding assay in KAN-Ts cells (inhibition of PYY-stimulated binding); type: biochemical; details: KAN-Ts membranes
Method: [^35S] GTPγS binding assay in KAN-Ts cells
Membranes from KAN-Ts cells were prepared as described above. Membranes were thawed on ice and diluted in 50 mM Tris-HCl buffer, pH 7.4 containing 10 mM MgCl2, 1 mM EDTA, 100 mM NaCl, […], 0.25% BSA. Assay mixture ([…]) were preincubated with compounds for 30 min at rt. Then, […] of [^35S]GTPγS in assay buffer was added to a final concentration of 200 pM and the assay mixtures were incubated for 1 h at rt. Reactions were terminated by rapid filtration thought GF/C filters. Filters were washed twice with ice cold 50 mM Tris-HCl, pH 7.4 containing 10 mM MgCl2. Basal [^35S]GTPγS was measured in the absence of compounds. In initial experiments, nonspecific binding was measured in the presence of […]. This nonspecific binding never exceeded 10% of basal binding and was thus not subtracted from experimental data. Stimulation of [^35S]GTPγS is presented as percentage over basal and was calculated as one hundred times the difference between stimulated and basal binding (in cpm). […] EC50 (concentration of compound at which 50% of its own maximal stimulation is obtained) and IC50 (concentration of its own maximal inhibition of PYY-stimulated [^35S]GTPγS binding is obtained) were derived from the curves. IC50 values were corrected as follows: corrected IC50 (IC50corr)=IC50/(1+[PYY]/EC50 (PYY)) and pIC50corr=−log IC50corr.

SMILES	IC50 ([1]; Table 2, [125I]PYY 80 pM) [nM]	also measured
CCNC(=O)C(c1ccccc1)C1CCN(c2ccc(NC(=O)Nc3c(C)noc3C)cc2F)CC1 (stereo not drawn) [Example 10, 2-(1-{4-[3-(3,5-Dimethyl-isoxazol-4-yl)-ureido]-2-fluoro-phenyl}-piperidin-4-yl)-N-ethyl-2-phenyl-acetamide]	–	IC50 ([1]; Table 1, [125I]PYY 80 pM): 15 nM; functional behaviour in [35S]GTPγS assay [2]: antagonist
CCC(CC)C(=O)Nc1ccc(N2CCN(C(C(=O)OC)c3ccc(OC)cc3)CC2)c(F)c1 (stereo not drawn) [Example 263, {4-[4-(2-Ethyl-butyrylamino)-2-fluoro-phenyl]-piperazin-1-yl}-(4-methoxy-phenyl)-acetic acid methyl ester]	250	–
CCC(CC)C(=O)Nc1ccc(N2CCN(C(C(=O)OC)c3ccccn3)CC2)c(F)c1 (stereo not drawn) [Example 264, {4-[4-(2-Ethyl-butyrylamino)-2-fluoro-phenyl]-piperazin-1-yl}-pyridin-2-yl-acetic acid methyl ester]	550	–
CCC(CC)C(=O)Nc1ccc(N2CCN(C(CO)c3ccccc3)CC2)c(F)c1 (stereo not drawn) [Example 266, 2-Ethyl-N-{3-fluoro-4-[4-(2-hydroxy-1-phenyl-ethyl)-piperazin-1-yl]-phenyl}-butyramide]	785	–
CCC(CC)C(=O)Nc1ccc(N2CCN(C(C)c3ccccc3)CC2)c(F)c1 (stereo not drawn) [Example 267, 2-Ethyl-N-{3-fluoro-4-[4-(1-phenyl-ethyl)-piperazin-1-yl]-phenyl}-butyramide]	1270	–
CCC(CC)C(=O)Nc1ccc(N2CCN(Cc3ccccc3)CC2)c(F)c1 [Example 268, N-[4-(4-Benzyl-piperazin-1-yl)-3-fluoro-phenyl]-2-ethyl-butyramide]	1400	–
CCC(CC)C(=O)Nc1ccc(N2CCN(Cc3ccc4c(c3)OCO4)C(C(=O)OC)C2)c(F)c1 (stereo not drawn) [Example 270, 1-Benzo[1,3]dioxol-5-ylmethyl-4-[4-(2-ethyl-butyrylamino)-2-fluoro-phenyl]-piperazine-2-carboxylic acid methyl ester]	3000	–
CCC(CC)C(=O)Nc1ccc(N2CCN(Cc3ccccc3)C(C(=O)OC)C2)c(F)c1 (stereo not drawn) [Example 271, 1-Benzyl-4-[4-(2-ethyl-butyrylamino)-2-fluoro-phenyl]-piperazine-2-carboxylic acid methyl ester]	4000	–
CCC(CC)C(=O)Nc1ccc(N2CC3CC2CN3C(C(=O)N(CC)CC)c2ccccc2)c(F)c1 (stereo not drawn) [Example 272, N-{4-[5-(Diethylcarbamoyl-phenyl-methyl)-2,5-diaza-bicyclo[2.2.1]heptyl]-3-fluoro-phenyl}-2-ethyl-butyramide]	4000	–
CCC(CC)C(=O)Nc1ccc(N2CCN(Cc3cc(F)cc(F)c3)C(C(=O)OC)C2)c(F)c1 (stereo not drawn) [Example 273, 1-(3,5-Difluoro-benzyl)-4-[4-(2-ethyl-butyrylamino)-2-fluoro-phenyl]-piperazine-2-carboxylic acid methyl ester]	7000	–
CCN(CC)C(=O)C(c1ccccc1)N1CCN(c2ccc(N3CCCC3=O)cc2F)CC1 (stereo not drawn) [Example 274, N,N-Diethyl-2-{4-[2-fluoro-4-(2-oxo-pyrrolidin-1-yl)-phenyl]-piperazin-1-yl}-2-phenyl-acetamide]	1600	–
CCN(CC)C(=O)C(c1ccccc1)N1CCN(c2ccc(CC(=O)N3CCCCC3c3ccccc3)cc2F)CC1 (stereo not drawn) [Example 275, N,N-Diethyl-2-(4-{2-fluoro-4-[2-oxo-2-(2-phenyl-piperidin-1-yl)-ethyl]-phenyl}-piperazin-1-yl)-2-phenyl-acetamide]	142	–
CCN(CC)C(=O)C(c1ccccc1)N1CCN(c2ccc(CC(=O)N3CCCC3c3ccccc3)cc2F)CC1 (stereo not drawn) [Example 276, N,N-Diethyl-2-(4-{2-fluoro-4-[2-oxo-2-(2-phenyl-pyrrolidin-1-yl)-ethyl]-phenyl}-piperazin-1-yl)-2-phenyl-acetamide]	200	–
CCC1CCCCN1C(=O)Cc1ccc(N2CCN(C(C(=O)N(CC)CC)c3ccccc3)CC2)c(F)c1 (stereo not drawn) [Example 277, N,N-Diethyl-2-(4-{4-[2-(2-ethyl-piperidin-1-yl)-2-oxo-ethyl]-2-fluoro-phenyl}-piperazin-1-yl)-2-phenyl-acetamide]	320	–
CCN(CC)C(=O)C(c1ccccc1)N1CCN(c2ccc(CC(=O)N(C)Cc3ccco3)cc2F)CC1 (stereo not drawn) [Example 278, N,N-Diethyl-2-(4-{2-fluoro-4-[(furan-2-ylmethyl-methyl-carbamoyl)-methyl]-phenyl}-piperazin-1-yl)-2-phenyl-acetamide]	320	–
CCN(CC)C(=O)C(c1ccccc1)N1CCN(c2ccc(CC(=O)N3C(C)CCC3C)cc2F)CC1 (stereo not drawn) [Example 279, 2-(4-{4-[2-(2,5-Dimethyl-pyrrolidin-1-yl)-2-oxo-ethyl]-2-fluoro-phenyl}-piperazin-1-yl)-N,N-diethyl-2-phenyl-acetamide]	540	–
CCN(CC)C(=O)C(c1ccccc1)N1CCN(c2ccc(CC(=O)N3CCCCC3c3cccnc3)cc2F)CC1 (stereo not drawn) [Example 280, N,N-Diethyl-2-(4-{2-fluoro-4-[2-oxo-2-(3,4,5,6-tetrahydro-2H-[2,3′]bipyridinyl-1-yl)-ethyl]-phenyl}-piperazin-1-yl)-2-phenyl-acetamide]	570	–
CCC(CC)NC(=O)Cc1ccc(N2CCN(C(C(=O)N(CC)CC)c3ccccc3)CC2)c(F)c1 (stereo not drawn) [Example 281, N,N-Diethyl-2-(4-{4-[(1-ethyl-propylcarbamoyl)-methyl]-2-fluoro-phenyl}-piperazin-1-yl)-2-phenyl-acetamide]	560	–
CCN(CC)C(=O)C(c1ccccc1)N1CCN(c2ccc(CC(=O)N3CCCC3C)cc2F)CC1 (stereo not drawn) [Example 282, N,N-Diethyl-2-(4-{2-fluoro-4-[2-(2-methyl-pyrrolidin-1-yl)-2-oxo-ethyl]-phenyl}-piperazin-1-yl)-2-phenyl-acetamide]	940	–
CCN(CC)C(=O)C(c1ccccc1)N1CCN(c2ccc(CC(=O)N3CCCC3)cc2F)CC1 (stereo not drawn) [Example 283, N,N-Diethyl-2-{4-[2-fluoro-4-(2-oxo-2-pyrrolidin-1-yl-ethyl)-phenyl]-piperazin-1-yl}-2-phenyl-acetamide]	1200	–
CCN(CC)C(=O)Cc1ccc(N2CCN(C(C(=O)N(CC)CC)c3ccccc3)CC2)c(F)c1 (stereo not drawn) [Example 284]	1500	–
CCN(CC)C(=O)C(c1ccccc1)N1CCN(c2ccc(CC(=O)NCc3ccccc3)cc2F)CC1 (stereo not drawn) [Example 285]	1900	–
CCN(CC)C(=O)C(c1ccccc1)N1CCN(c2ccc(CC(=O)N(C)Cc3ccccc3)cc2F)CC1 (stereo not drawn) [Example 286]	2100	–
CCN(Cc1ccccc1)C(=O)Cc1ccc(N2CCN(C(C(=O)N(CC)CC)c3ccccc3)CC2)c(F)c1 (stereo not drawn) [Example 287]	2200	–
CCC(CC)NC(=O)Cc1ccc(N2CCN(C(C(=O)N3CCC(F)(F)C3)c3ccccc3)CC2)c(F)c1 (stereo not drawn) [Example 288, 2-(4-{4-[2-(3,3-Difluoro-pyrrolidin-1-yl)-2-oxo-1-phenyl-ethyl]-piperazin-1-yl}-3-fluoro-phenyl)-N-(1-ethyl-propyl)-acetamide]	2100	–
CCN(CC)C(=O)Cc1ccc(N2CCN(C(C(=O)N3CCC(F)(F)C3)c3ccccc3)CC2)c(F)c1 (stereo not drawn) [Example 289, 2-(4-{4-[2-(3,3-Difluoro-pyrrolidin-1-yl)-2-oxo-1-phenyl-ethyl]-piperazin-1-yl}-3-fluoro-phenyl)-N,N-diethyl-acetamide]	3450	–
CCNC(=O)Cc1ccc(N2CCN(C(C(=O)N(CC)CC)c3ccccc3)CC2)c(F)c1 (stereo not drawn) [Example 290, N,N-Diethyl-2-[4-(4-ethylcarbamoylmethyl-2-fluoro-phenyl)-piperazin-1-yl]-2-phenyl-acetamide]	4300	–
CCN(CC)C(=O)C(c1ccccc1)N1CCN(c2ccc(CC(=O)NC3CCCC3)cc2F)CC1 (stereo not drawn) [Example 291, 2-[4-(4-Cyclopentylcarbamoylmethyl-2-fluoro-phenyl)-piperazin-1-yl]-N,N-diethyl-2-phenyl-acetamide]	8700	–
CCC(CC)C(=O)Nc1ccc(N2CCN(C(C(=O)N(C)C)c3ccccc3)CC2)c(F)c1 (stereo not drawn) [Example 292, N-{4-[4-(Dimethylcarbamoyl-phenyl-methyl)-piperazin-1-yl]-3-fluoro-phenyl}-2-ethyl-butyramide]	104	–
